# Literature values, collected in patent US5580957A, “GnRH analogs” (The Salk Institute for Biological Studies, priority 1994, dated 1996).
# What was measured:
# receptor (GnRH) = target: T1, receptor (GnRH) (Homo sapiens, UniProt P30968); details: background statement
# T1 sequence (P30968 1-328): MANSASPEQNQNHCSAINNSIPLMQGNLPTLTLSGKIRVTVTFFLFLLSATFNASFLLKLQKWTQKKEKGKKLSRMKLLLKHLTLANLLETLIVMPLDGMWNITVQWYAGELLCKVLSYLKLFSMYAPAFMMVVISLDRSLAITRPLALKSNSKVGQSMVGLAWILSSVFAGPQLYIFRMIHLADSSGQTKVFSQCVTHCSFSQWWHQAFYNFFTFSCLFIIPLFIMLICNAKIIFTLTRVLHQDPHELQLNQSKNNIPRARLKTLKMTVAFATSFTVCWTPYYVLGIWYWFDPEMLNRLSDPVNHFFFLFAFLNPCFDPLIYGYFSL
# GnRH = details: background statement
substance,measurement,setting,value
pGlu-His-Trp-Ser-Tyr-D-Ala-Leu-Arg-Pro-Gly-NH2 [[D-Ala^6]-GnRH],binding strength to the receptor versus native hormone,receptor (GnRH),greater binding strength
same,biological potency versus native hormone,GnRH,greater biological potency than the native hormone
